Data as given in patent US20220217980A1, “DITHIOCARBAMATE FUNGICIDE MACROMOLECULAR COMPLEXES” (Adama Makhteshim Ltd., priority 2019, published 2022).

Legend:
[1] = Zeta potential analysis of mancozeb dispersions with and without polycations (Zetasizer Nano); format: physicochemical
Excerpt: Zeta potential is an indicator for complexation and stability of a dispersion. A zeta potential close to zero between −10 mV and +10 Mv indicates a maximum interaction between polyelectrolytes and MZ. The Zeta potential is the charge that develops at the interface between a solid surface and its liquid medium. Zeta potential values give a value of the net charge (in mV) on particle surfaces.
To a 1 g/l aqueous polycation solution (chitosan (CTS), ϵ-poly-L-lysine or polyallylamine (PAA)), 5, 40, 60, 80 and 120 g/l of MZ powder was added, resulting in ratios 1:5, 1:40, 1:60, 1:80 and 1:120 (based on weigh/weight % of dry material), respectively. Mancozeb added to an aqueous solution served as a control. The dispersions were mixed for 10 min on a vortexing device.
The different polycation-mancozeb incubations were analyzed for the Zeta potential with a Zetasizer Nano (Malvern Instruments. United Kingdom).

[2] = at 20° C.; cited from earlier work

S=C([S-])NCCNC(=S)[S-].[Mn+2].[Zn] [Mancozeb, zinc; manganese(2+); N-[2-(sulfidocarbothioylamino)ethyl]carbamodithioate]
zeta potential ([1]; ratio polycation:mancozeb 1:5): −18.2 mV | zeta potential ([1]; ratio polycation:mancozeb 1:40): −20.6 mV | zeta potential ([1]; ratio polycation:mancozeb 1:60): −20.5 mV | zeta potential ([1]; ratio polycation:mancozeb 1:80): −18.9 mV | zeta potential ([1]; ratio polycation:mancozeb 1:120): −18.3 mV | solubility [2]: about 6.2 mg per liter
